From the supplement of paper PMC9663587

Columns and labels:
Rucaparib = compound: CNCc1ccc(-c2[nH]c3cc(F)cc4c3c2CCNC4=O)cc1 [Rucaparib]
BVD523 = compound: CC(C)Nc1cc(-c2c[nH]c(C(=O)N[C@H](CO)c3cccc(Cl)c3)c2)c(Cl)cn1 [BVD523]
Cabozantinib = compound: COc1cc2nccc(Oc3ccc(NC(=O)C4(C(=O)Nc5ccc(F)cc5)CC4)cc3)c2cc1OC [Cabozantinib]
Torin2 = compound: C1=CC(=CC(=C1)N2C(=O)C=CC3=CN=C4C=CC(=CC4=C32)C5=CN=C(C=C5)N)C(F)(F)F [Torin2]
AZD1775 = compound: C=CCn1c(=O)c2cnc(Nc3ccc(N4CCN(C)CC4)cc3)nc2n1-c1cccc(C(C)(C)O)n1 [AZD1775]
Cediranib/AZD2171 = compound: COc1cc2c(Oc3ccc4[nH]c(C)cc4c3F)ncnc2cc1OCCCN1CCCC1 [Cediranib/AZD2171]
BSJ-03-123 = compound: CC(=O)c1c(C)c2cnc(Nc3ccc(N4CCN(CCOCCOCCOCCNC(=O)COc5cccc6c5C(=O)N(C5CCC(=O)NC5=O)C6=O)CC4)cn3)nc2n(C2CCCC2)c1=O [BSJ-03-123]
Pictilisib/GDC0941 = compound: CS(=O)(=O)N1CCN(Cc2cc3nc(-c4cccc5[nH]ncc45)nc(N4CCOCC4)c3s2)CC1 [Pictilisib/GDC0941]
[1] = compound: Cc1nn(C)c(COc2ccc(N3CCN(S(=O)(=O)N(C)C)CC3)cc2)c1-c1cccc2c(CCCOc3cccc4ccccc34)c(C(=O)O)n(CCN3CCOCC3)c12
Paclitaxel = compound: CC(=O)O[C@H]1C(=O)[C@@]2(C)[C@H]([C@H](OC(=O)c3ccccc3)[C@]3(O)C[C@H](OC(=O)[C@H](O)[C@@H](NC(=O)c4ccccc4)c4ccccc4)C(C)=C1C3(C)C)[C@]1(OC(C)=O)CO[C@@H]1C[C@@H]2O [Paclitaxel]
Neratinib/HKI272 = compound: CCOc1cc2ncc(C#N)c(Nc3ccc(OCc4ccccn4)c(Cl)c3)c2cc1NC(=O)/C=C/CN(C)C [Neratinib/HKI272]
Olaparib/AZD2281 = compound: O=C(c1cc(Cc2n[nH]c(=O)c3ccccc23)ccc1F)N1CCN(C(=O)C2CC2)CC1 [Olaparib/AZD2281]
[2] = compound: CC(=O)c1c(C)c2cnc(Nc3ccc(N4CCNCC4)cn3)nc2n(C2CCCC2)c1=O
Dasatinib = compound: Cc1nc(Nc2ncc(C(=O)Nc3c(C)cccc3Cl)s2)cc(N2CCN(CCO)CC2)n1 [Dasatinib]
Volasertib/BI6727 = compound: CC[C@@H]1C(=O)N(C)c2cnc(Nc3ccc(C(=O)N[C@H]4CC[C@H](N5CCN(CC6CC6)CC5)CC4)cc3OC)nc2N1C(C)C [Volasertib/BI6727]
Buparlisib/NVP-BKM120 = compound: Nc1cc(C(F)(F)F)c(-c2cc(N3CCOCC3)nc(N3CCOCC3)n2)cn1 [Buparlisib/NVP-BKM120]
Luminespib/NVP-AUY922 = compound: CCNC(=O)c1noc(-c2cc(C(C)C)c(O)cc2O)c1-c1ccc(CN2CCOCC2)cc1 [Luminespib/NVP-AUY922]
THZ1 = compound: CN(C)C/C=C/C(=O)Nc1ccc(C(=O)Nc2cccc(Nc3ncc(Cl)c(-c4c[nH]c5ccccc45)n3)c2)cc1 [THZ1]
AZD5363 = compound: NC1(C(=O)N[C@@H](CCO)c2ccc(Cl)cc2)CCN(c2nc[nH]c3nccc2-3)CC1 [AZD5363]
Ceritinib/LDK378 = compound: Cc1cc(Nc2ncc(Cl)c(Nc3ccccc3S(=O)(=O)C(C)C)n2)c(OC(C)C)cc1C1CCNCC1 [Ceritinib/LDK378]
THZ-P1-2 = compound: CN(C)C/C=C/C(=O)NC1=CC=C(C=C1)C(=O)NC2=CC=CC(=C2)NC3=NC=NC(=C3)C4=CNC5=CC=CC=C54 [THZ-P1-2]
TGX221 = compound: CC1=CN2C(=O)C=C(N=C2C(=C1)C(C)NC3=CC=CC=C3)N4CCOCC4 [TGX221]
INK128/MLN0128 = compound: CC(C)n1nc(-c2ccc3oc(N)nc3c2)c2c(N)ncnc21 [INK128/MLN0128]
[3] = compound: CCCCOc1c(C(=O)c2c(F)cc(C)cc2F)c[nH]c2nncc1-2
[4] = compound: CNc1nc(-c2ccc3c(N)n[nH]c3c2)cc(N2C[C@@H](C(=O)NC3CCCCC3)CC[C@H]2C)n1
R0-3306 = compound: C1=CC2=C(C=CC(=C2)C=C3C(=O)NC(=NCC4=CC=CS4)S3)N=C1 [R0-3306]
THZ531 = compound: CN(C)C/C=C/C(=O)Nc1ccc(C(=O)N2CCC[C@@H](Nc3ncc(Cl)c(-c4c[nH]c5ccccc45)n3)C2)cc1 [THZ531]
Alpelisib/BYL719 = compound: Cc1nc(NC(=O)N2CCC[C@H]2C(N)=O)sc1-c1ccnc(C(C)(C)C(F)(F)F)c1 [Alpelisib/BYL719]
LEE011/Ribociclib = compound: CN(C)C(=O)c1cc2cnc(Nc3ccc(N4CCNCC4)cn3)nc2n1C1CCCC1 [LEE011/Ribociclib]
Doxorubicin = compound: COc1cccc2c1C(=O)c1c(O)c3c(c(O)c1C2=O)C[C@@](O)(C(=O)CO)C[C@@H]3O[C@H]1C[C@H](N)[C@H](O)[C@H](C)O1 [Doxorubicin]
SHP099 = compound: CC1(CCN(CC1)C2=CN=C(C(=N2)N)C3=C(C(=CC=C3)Cl)Cl)N [SHP099]
senexin b = compound: CN1CCN(C(=O)c2ccc3cc(CCNc4ncnc5ccc(C#N)cc45)ccc3c2)CC1 [senexin b]
[5] = compound: CCc1cnn2c(NCc3ccc[n+]([O-])c3)cc(N3CCCC[C@H]3CCO)nc12
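Further: breast cancer and non-malignant breast epithelial cell lines, Deep Dye Drop or Dye Drop imaging, nine half-log doses, GR normalized to time-zero plates and DMSO-only controls.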

Cell Line	GR50, 72 h (Rucaparib) [µM]	GR50, 72 h (BVD523) [µM]	GR50, 72 h (Cabozantinib) [µM]	GR50, 72 h (Torin2) [µM]	GR50, 72 h (AZD1775) [µM]	GR50, 72 h (Cediranib/AZD2171) [µM]	GR50, 72 h (BSJ-03-123) [µM]	GR50, 72 h (Pictilisib/GDC0941) [µM]	GR50, 72 h [1] [µM]	GR50, 72 h (Paclitaxel) [µM]	GR50, 72 h (Neratinib/HKI272) [µM]	GR50, 72 h (Olaparib/AZD2281) [µM]	GR50, 72 h [2] [µM]	GR50, 72 h (Dasatinib) [µM]	GR50, 72 h (Volasertib/BI6727) [µM]	GR50, 72 h (Buparlisib/NVP-BKM120) [µM]	GR50, 72 h (Luminespib/NVP-AUY922) [µM]	GR50, 72 h (THZ1) [µM]	GR50, 72 h (AZD5363) [µM]	GR50, 72 h (Ceritinib/LDK378) [µM]	GR50, 72 h (THZ-P1-2) [µM]	GR50, 72 h (TGX221) [µM]	GR50, 72 h (INK128/MLN0128) [µM]	GR50, 72 h [3] [µM]	GR50, 72 h [4] [µM]	GR50, 72 h (R0-3306) [µM]	GR50, 72 h (THZ531) [µM]	GR50, 72 h (Alpelisib/BYL719) [µM]	GR50, 72 h (LEE011/Ribociclib) [µM]	GR50, 72 h (Doxorubicin) [µM]	GR50, 72 h (SHP099) [µM]	GR50, 72 h (senexin b) [µM]	GR50, 72 h [5] [µM]
MCF7	> 10	3.8	4.82	0.00456	0.0111	5.7	1.42	0.13	> 10	0.00138	1.26	> 10	0.075	0.0694	0.00287	0.187	0.00871	0.0224	> 10	0.344	3.65	> 10	0.00298	0.00767	3.23	6.26	0.061	0.585	0.185	0.0161	> 10	> 10	0.00831
EFM19	> 10	> 10	> 10	0.0114	3.9	> 10	1.23	0.23	> 10	0.00438	> 3.16	> 10	0.525	0.0184	0.0101	0.706	0.021	0.383	1.63	5.52	6.33	> 10	0.00896	0.119	2.18	6.14	0.466	0.282	1.71	0.0513	> 10	> 10	0.0283
PDX1328	> 10	> 10	6.29	0.00494	0.00554	4.04		0.878	> 10	0.00287	0.264	> 10	0.168	0.0279	0.00437	0.528	0.00288	0.0106	> 10	0.629	> 10	> 10	0.00569	> 10	> 10		0.0399	1.57	0.349	0.024	> 10	> 10	0.0148
